This note sets out measurements from patent US8106055B2, “Substituted amide compounds” (Gruenenthal GmbH, priority 2007, dated 2012).

Each structure is given as a SMILES string.

The experiment addresses T1, bradykinin 1 receptor (B1R) of the rat (Rattus norvegicus, UniProt P97583).
T1 construct: expressed in transfected cells; host or cells: CHO K1 cells
T1 sequence (P97583 1-337): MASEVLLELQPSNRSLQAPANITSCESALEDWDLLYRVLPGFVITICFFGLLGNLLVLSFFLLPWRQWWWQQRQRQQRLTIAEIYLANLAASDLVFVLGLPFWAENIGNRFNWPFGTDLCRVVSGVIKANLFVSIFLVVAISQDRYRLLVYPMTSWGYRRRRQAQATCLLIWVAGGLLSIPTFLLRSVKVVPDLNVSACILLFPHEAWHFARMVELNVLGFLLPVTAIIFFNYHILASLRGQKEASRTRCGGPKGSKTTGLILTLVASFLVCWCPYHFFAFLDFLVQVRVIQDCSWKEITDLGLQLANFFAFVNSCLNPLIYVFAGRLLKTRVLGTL
As to the kind of experiment: Functional investigation on the rat bradykinin 1 receptor (B1R), Ca2+ FLIPR assay in CHO K1 rB1R cells. In kind it is cell-based. Conditions: CHO-K1, B1R antagonism rat; test substance 10 μM; Ca2+ FLIPR, CHO K1 rB1R cells; read-out: B1R Ant. r [10 μM] % Inhibition. In short, it runs like this:
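Cells were dye-loaded with Fluo-4 plus probenecid, then test substances added and Ca2+ influx compared with agonist control for % activation. After 10-20 min, EC80 agonist (Lys-Des-Arg9-bradykinin human; Des-Arg9-bradykinin rat) was applied; suppression gave % inhibition and IC50 values.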
By inhibition is commonly meant the relative decrease from the control value, in per cent. Regarding `CN(C)C(c1cccs1)C1CCC(CCNC(=O)COC2CCN(S(=O)(=O)c3ccc(Cl)cc3Cl)C2)CC1` (centres unmarked) [Example 21, 2-(1-(2,4-dichlorophenylsulfonyl)pyrrolidin-3-yloxy)-N-(2-(4-((dimethylamino)(thiophen-2-yl)methyl)cyclohexyl)ethyl)acetamide], the inhibition at 10 µM worked out at 50%.
As to `COc1ccc(S(=O)(=O)N2CCCCC2COCC(=O)NCCC2CCC(C(c3cccc(F)c3)N(C)C)CC2)cc1` (centres unmarked) [Example 180, N-(2-(4-((dimethylamino)(3-fluorophenyl)methyl)cyclohexyl)ethyl)-2-((1-(4-methoxyphenylsulfonyl)piperidin-2-yl)methoxy)acetamide], the inhibition at 10 µM came out at 68%.
Regarding `CN(C)C(c1cccc(F)c1)C1CCC(CCNC(=O)COCCN(C)S(=O)(=O)c2c(Cl)cc(Cl)cc2Cl)CC1` (centres unmarked) [Example 174, N-(2-(4-((dimethylamino)(3-fluorophenyl)methyl)cyclohexyl)ethyl)-2-(2-(2,4,6-trichloro-N-methylphenylsulfonamido)ethoxy)acetamide], the inhibition at 10 µM amounted to 44%.
With `CN(C)C(c1ccccc1)C1CCC(NC(=O)COCCN(C)S(=O)(=O)c2ccc(Cl)cc2Cl)CC1` (centres unmarked) [Example 33, 2-(2-(2,4-dichloro-N-methylphenylsulfonamido)ethoxy)-N-(4-((dimethylamino)(phenyl)methyl)cyclohexyl)acetamide], the inhibition at 10 µM was 9%.
`CN(C)C(c1cccc(F)c1)C1CCC(CNC(=O)COC2CCN(S(=O)(=O)c3cccc(C(F)(F)F)c3)C2)CC1` (centres unmarked) [Example 170, N-((4-((dimethylamino)(3-fluorophenyl)methyl)cyclohexyl)methyl)-2-(1-(3-(trifluoromethyl)phenylsulfonyl)pyrrolidin-3-yloxy)acetamide]: the inhibition at 10 µM came out at 38%.
For `COc1cc(C)c(S(=O)(=O)N2CCC(OCC(=O)NC3CCC(C(c4ccccc4)N(C)C)CC3)C2)c(C)c1` (centres unmarked) [Example 165, N-(4-((dimethylamino)(phenyl)methyl)cyclohexyl)-2-(1-(4-methoxy-2,6-dimethylphenylsulfonyl)pyrrolidin-3-yloxy)acetamide] the value was 38%; for `CN(C)C(c1cccc(F)c1)C1CCC(CCNC(=O)COCCN(C)S(=O)(=O)c2ccc(Cl)cc2)CC1` (centres unmarked) [Example 186, 2-(2-(4-chloro-N-methylphenylsulfonamido)ethoxy)-N-(2-(4-((dimethylamino)(3-fluorophenyl)methyl)cyclohexyl)ethyl)acetamide], 35%.
For the compound `COc1ccc(S(=O)(=O)N2CCC(OCC(=O)NCC3CCC(C(c4cccc(F)c4)N(C)C)CC3)C2)cc1OC` (centres unmarked) [Example 184, 2-(1-(3,4-dimethoxyphenylsulfonyl)pyrrolidin-3-yloxy)-N-((4-((dimethylamino)(3-fluorophenyl)methyl)cyclohexyl)methyl)acetamide], the inhibition at 10 µM was determined as 38%.
Take `CN(C)C(c1cccs1)C1CCC(CNC(=O)COC2CCN(S(=O)(=O)c3cccc(C(F)(F)F)c3)C2)CC1` (centres unmarked) [Example 25, N-((4-((dimethylamino)(thiophen-2-yl)methyl)cyclohexyl)methyl)-2-(1-(3-(trifluoromethyl)phenylsulfonyl)pyrrolidin-3-yloxy)acetamide]: the inhibition at 10 µM is 30%.
For `CCN(CCOCC(=O)NC1CCC(C(c2cccc(F)c2)N(C)C)CC1)S(=O)(=O)c1c(C)cc(OC)c(C)c1C` (centres unmarked) [Example 176, N-(4-((dimethylamino)(3-fluorophenyl)methyl)cyclohexyl)-2-(2-(N-ethyl-4-methoxy-2,3,6-trimethylphenylsulfonamido)ethoxy)acetamide] the value was 47%; for `COc1ccc(S(=O)(=O)N2CCCC2COCC(=O)NC2CCC(C(c3cccs3)N(C)C)CC2)cc1` (centres unmarked) [Example 162, N-(4-((dimethylamino)(thiophen-2-yl)methyl)cyclohexyl)-2-((1-(4-methoxyphenylsulfonyl)pyrrolidin-2-yl)methoxy)acetamide], 21%; for `COc1cc(C)c(S(=O)(=O)N(C)CCOCC(=O)NCCC2CCC(C(c3cccc(F)c3)N(C)C)CC2)c(C)c1C` (centres unmarked) [Example 183, N-(2-(4-((dimethylamino)(3-fluorophenyl)methyl)cyclohexyl)ethyl)-2-(2-(4-methoxy-N,2,3,6-tetramethylphenylsulfonamido)ethoxy)acetamide], 28%.
`Cc1ccc(S(=O)(=O)N2CCC(OCC(=O)NC3CCC(C(c4cccs4)N(C)C)CC3)C2)cc1` (centres unmarked) [Example 156, N-(4-((dimethylamino)(thiophen-2-yl)methyl)cyclohexyl)-2-(1-tosylpyrrolidin-3-yloxy)acetamide]: the inhibition at 10 µM is 20%.
As for `COc1cc(C)c(S(=O)(=O)N(C)CCOCC(=O)NCCC2CCC(C(c3cccc(F)c3)N(C)C)CC2)c(C)c1` (centres unmarked) [Example 197, N-(2-(4-((dimethylamino)(3-fluorophenyl)methyl)cyclohexyl)ethyl)-2-(2-(4-methoxy-N,2,6-trimethylphenylsulfonamido)ethoxy)acetamide], the inhibition at 10 µM came out at 105%.
On to `CN(C)C(c1cccs1)C1CCC(NC(=O)COCCN(C)S(=O)(=O)c2ccc(F)cc2)CC1` (centres unmarked) [Example 10, N-(4-((dimethylamino)(thiophen-2-yl)methyl)cyclohexyl)-2-(2-(4-fluoro-N-methylphenylsulfonamido)ethoxy)acetamide], for which the inhibition at 10 µM came to 9%.
As for `CN(C)C(c1ccccc1)C1CCC(CNC(=O)COCCN(C)S(=O)(=O)c2c(Cl)cccc2Cl)CC1` (centres unmarked) [Example 13, 2-(2-(2,6-dichloro-N-methylphenylsulfonamido)ethoxy)-N-((4-((dimethylamino)(phenyl)methyl)cyclohexyl)methyl)acetamide], the inhibition at 10 µM worked out at 44%.
Take `CN(C)C(c1cccs1)C1CCC(NC(=O)COC2CCN(S(=O)(=O)c3ccc(F)cc3)C2)CC1` (centres unmarked) [Example 28, N-(4-((dimethylamino)(thiophen-2-yl)methyl)cyclohexyl)-2-(1-(4-fluorophenylsulfonyl)pyrrolidin-3-yloxy)acetamide]: the inhibition at 10 µM was determined as 17%.
For the compound `COc1ccc(S(=O)(=O)N2CCCCC2COCC(=O)NCCC2CCC(C(c3cccc(F)c3)N(C)C)CC2)cc1OC` (centres unmarked) [Example 191, 2-((1-(3,4-dimethoxyphenylsulfonyl)piperidin-2-yl)methoxy)-N-(2-(4-((dimethylamino)(3-fluorophenyl)methyl)cyclohexyl)ethyl)acetamide], the inhibition at 10 µM was -14%.
As for `COc1ccc(S(=O)(=O)N2CCCCC2COCC(=O)NCC2CCC(C(c3cccc(F)c3)N(C)C)CC2)cc1` (centres unmarked) [Example 179, N-((4-((dimethylamino)(3-fluorophenyl)methyl)cyclohexyl)methyl)-2-((1-(4-methoxyphenylsulfonyl)piperidin-2-yl)methoxy)acetamide], the inhibition at 10 µM came out at 67%.
As to `Cc1ccc(S(=O)(=O)N(C)CCOCC(=O)NCC2CCC(C(c3ccccc3)N(C)C)CC2)cc1` (centres unmarked) [Example 157, N-((4-((dimethylamino) (phenyl)methyl)cyclohexyl)methyl)-2-(2-(N,4-dimethylphenylsulfonamido)ethoxy)acetamide], the inhibition at 10 µM was -1%.
Consider `Cc1cc(C)c(S(=O)(=O)N2CCC(OCC(=O)NC3CCC(C(c4cccs4)N(C)C)CC3)C2)c(C)c1` (centres unmarked) [Example 12, N-(4-((dimethylamino)(thiophen-2-yl)methyl)cyclohexyl)-2-(1-(mesitylsulfonyl)pyrrolidin-3-yloxy)acetamide], for which the inhibition at 10 µM is 30%.
With `CN(C)C(c1ccccc1)C1CCC(CNC(=O)COCCN(Cc2ccccc2)S(=O)(=O)c2ccccc2)CC1` (centres unmarked) [Example 15, 2-(2-(N-benzylphenylsulfonamido)ethoxy)-N-((4-((dimethylamino)(phenyl)methyl)cyclohexyl)methyl)acetamide], the inhibition at 10 µM was -18%.
Turning to `COc1cc(C)c(S(=O)(=O)N2CCCC(OCC(=O)NCC3CCC(C(c4ccccc4)N(C)C)CC3)C2)c(C)c1C` (centres unmarked) [Example 29, N-((4-((dimethylamino)(phenyl)methyl)cyclohexyl)methyl)-2-(1-(4-methoxy-2,3,6-trimethylphenylsulfonyl)piperidin-3-yloxy)acetamide], the inhibition at 10 µM amounted to 17%.
The value for `COc1cc(C)c(S(=O)(=O)N2CCCC(OCC(=O)NC3CCC(C(c4cccs4)N(C)C)CC3)C2)c(C)c1C` (centres unmarked) [Example 144, N-(4-((dimethylamino)(thiophen-2-yl)methyl)cyclohexyl)-2-(1-(4-methoxy-2,3,6-trimethylphenylsulfonyl)piperidin-3-yloxy)acetamide] was 4%.
For `COc1ccc(S(=O)(=O)N2CCC(OCC(=O)NCC3CCC(C(c4cccs4)N(C)C)CC3)C2)cc1OC` (centres unmarked) [Example 23, 2-(1-(3,4-dimethoxyphenylsulfonyl)pyrrolidin-3-yloxy)-N-((4-((dimethylamino)(thiophen-2-yl)methyl)cyclohexyl)methyl)acetamide] the value was 7%; for `Cc1cc(C)c(S(=O)(=O)N2CCC(OCC(=O)NCC3CCC(C(c4ccccc4)N(C)C)CC3)C2)c(C)c1` (centres unmarked) [Example 26, N-((4-((dimethylamino)(phenyl)methyl)cyclohexyl)methyl)-2-(1-(mesitylsulfonyl)pyrrolidin-3-yloxy)acetamide], 38%.
